Laboratory results taken from PubChem BioAssay (NCI).
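Grown in 96-well plates, cells were treated for 48 hours with each compound at five concentrations. Insufficient inhibition: endpoint recorded as highest concentration tested. TGI marks complete inhibition of growth.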

System: NCI-H226 lung
Assay: NCI anticancer screen, dose series, 48 h

Row | Compound | TGI [µM]
1 | Cc1cccc(-n2c(C)nc3ccc(NC(=S)Nc4ccccc4)cc3c2=O)c1 | > 100
2 | COc1ccc(-c2ncnc(-c3ccc(OC)c(OC)c3)n2)cc1OC | > 100
3 | CN(C)C(=O)Oc1ccc[n+](C)c1 | > 100

System: NCI-H23 lung
Assay: NCI anticancer screen, dose series, 48 h

Row | Compound | TGI [µM]
4 | CN(N=O)C(=O)NNC(=O)N(C)N=O | > 100
5 | CC1=C(C)C2(C#N)C(=O)N3C(=NC(c4ccccc4)NC3c3ccccc3)C2(C#N)C(c2ccccc2)N1 (stereo not drawn) | > 100
6 | Cc1cccc(-n2c(C)nc3ccc(NC(=S)Nc4ccccc4)cc3c2=O)c1 | > 100
7 | COc1ccc(-c2ncnc(-c3ccc(OC)c(OC)c3)n2)cc1OC | > 100
8 | CN(C)C(=O)Oc1ccc[n+](C)c1 | > 100

System: NCI-H460 lung
Assay: NCI anticancer screen, dose series, 48 h

Row | Compound | TGI [µM]
9 | CN(N=O)C(=O)NNC(=O)N(C)N=O | > 100
10 | CC1=C(C)C2(C#N)C(=O)N3C(=NC(c4ccccc4)NC3c3ccccc3)C2(C#N)C(c2ccccc2)N1 (stereo not drawn) | > 100
11 | Cc1cccc(-n2c(C)nc3ccc(NC(=S)Nc4ccccc4)cc3c2=O)c1 | > 100
12 | CN(C)C(=O)Oc1ccc[n+](C)c1 | > 100

System: NCI-H522 lung
Assay: NCI anticancer screen, dose series, 48 h

Row | Compound | TGI [µM]
13 | CN(N=O)C(=O)NNC(=O)N(C)N=O | > 100
14 | CC1=C(C)C2(C#N)C(=O)N3C(=NC(c4ccccc4)NC3c3ccccc3)C2(C#N)C(c2ccccc2)N1 (stereo not drawn) | > 100
15 | Cc1cccc(-n2c(C)nc3ccc(NC(=S)Nc4ccccc4)cc3c2=O)c1 | > 100
16 | COc1ccc(-c2ncnc(-c3ccc(OC)c(OC)c3)n2)cc1OC | > 100
17 | CN(C)C(=O)Oc1ccc[n+](C)c1 | > 100

System: NCI/ADR-RES ovarian
Assay: NCI anticancer screen, dose series, 48 h

Row | Compound | TGI [µM]
18 | CN(N=O)C(=O)NNC(=O)N(C)N=O | > 100
19 | CC1=C(C)C2(C#N)C(=O)N3C(=NC(c4ccccc4)NC3c3ccccc3)C2(C#N)C(c2ccccc2)N1 (stereo not drawn) | > 100
20 | Cc1cccc(-n2c(C)nc3ccc(NC(=S)Nc4ccccc4)cc3c2=O)c1 | > 100
21 | COc1ccc(-c2ncnc(-c3ccc(OC)c(OC)c3)n2)cc1OC | > 100
22 | CN(C)C(=O)Oc1ccc[n+](C)c1 | > 100

System: OVCAR-3 ovarian
Assay: NCI anticancer screen, dose series, 48 h

Row | Compound | TGI [µM]
23 | CN(N=O)C(=O)NNC(=O)N(C)N=O | > 100
24 | Cc1cccc(-n2c(C)nc3ccc(NC(=S)Nc4ccccc4)cc3c2=O)c1 | > 100
25 | COc1ccc(-c2ncnc(-c3ccc(OC)c(OC)c3)n2)cc1OC | > 100
26 | CN(C)C(=O)Oc1ccc[n+](C)c1 | > 100

System: OVCAR-4 ovarian
Assay: NCI anticancer screen, dose series, 48 h

Row | Compound | TGI [µM]
27 | CN(N=O)C(=O)NNC(=O)N(C)N=O | > 100
28 | CC1=C(C)C2(C#N)C(=O)N3C(=NC(c4ccccc4)NC3c3ccccc3)C2(C#N)C(c2ccccc2)N1 (stereo not drawn) | > 100
29 | Cc1cccc(-n2c(C)nc3ccc(NC(=S)Nc4ccccc4)cc3c2=O)c1 | > 100
30 | CN(C)C(=O)Oc1ccc[n+](C)c1 | > 100

System: OVCAR-5 ovarian
Assay: NCI anticancer screen, dose series, 48 h

Row | Compound | TGI [µM]
31 | CN(N=O)C(=O)NNC(=O)N(C)N=O | > 100
32 | CC1=C(C)C2(C#N)C(=O)N3C(=NC(c4ccccc4)NC3c3ccccc3)C2(C#N)C(c2ccccc2)N1 (stereo not drawn) | > 100
33 | Cc1cccc(-n2c(C)nc3ccc(NC(=S)Nc4ccccc4)cc3c2=O)c1 | > 100
34 | COc1ccc(-c2ncnc(-c3ccc(OC)c(OC)c3)n2)cc1OC | > 100
35 | CN(C)C(=O)Oc1ccc[n+](C)c1 | > 100

System: OVCAR-8 ovarian
Assay: NCI anticancer screen, dose series, 48 h

Row | Compound | TGI [µM]
36 | CN(N=O)C(=O)NNC(=O)N(C)N=O | > 100
37 | CC1=C(C)C2(C#N)C(=O)N3C(=NC(c4ccccc4)NC3c3ccccc3)C2(C#N)C(c2ccccc2)N1 (stereo not drawn) | > 100
38 | Cc1cccc(-n2c(C)nc3ccc(NC(=S)Nc4ccccc4)cc3c2=O)c1 | > 100
39 | COc1ccc(-c2ncnc(-c3ccc(OC)c(OC)c3)n2)cc1OC | > 100
40 | CN(C)C(=O)Oc1ccc[n+](C)c1 | > 100

System: PC-3 prostate
Assay: NCI anticancer screen, dose series, 48 h

Row | Compound | TGI [µM]
41 | CN(N=O)C(=O)NNC(=O)N(C)N=O | > 100
42 | CC1=C(C)C2(C#N)C(=O)N3C(=NC(c4ccccc4)NC3c3ccccc3)C2(C#N)C(c2ccccc2)N1 (stereo not drawn) | > 100
43 | Cc1cccc(-n2c(C)nc3ccc(NC(=S)Nc4ccccc4)cc3c2=O)c1 | > 100
44 | COc1ccc(-c2ncnc(-c3ccc(OC)c(OC)c3)n2)cc1OC | > 100
45 | CN(C)C(=O)Oc1ccc[n+](C)c1 | > 100

System: RPMI-8226 leukemia
Assay: NCI anticancer screen, dose series, 48 h

Row | Compound | TGI [µM]
46 | CN(N=O)C(=O)NNC(=O)N(C)N=O | > 100
47 | CC1=C(C)C2(C#N)C(=O)N3C(=NC(c4ccccc4)NC3c3ccccc3)C2(C#N)C(c2ccccc2)N1 (stereo not drawn) | > 100
48 | Cc1cccc(-n2c(C)nc3ccc(NC(=S)Nc4ccccc4)cc3c2=O)c1 | > 100
49 | CN(C)C(=O)Oc1ccc[n+](C)c1 | > 100

System: RXF 393 renal
Assay: NCI anticancer screen, dose series, 48 h

Row | Compound | TGI [µM]
50 | CN(N=O)C(=O)NNC(=O)N(C)N=O | 85.7
51 | CC1=C(C)C2(C#N)C(=O)N3C(=NC(c4ccccc4)NC3c3ccccc3)C2(C#N)C(c2ccccc2)N1 (stereo not drawn) | > 100
52 | Cc1cccc(-n2c(C)nc3ccc(NC(=S)Nc4ccccc4)cc3c2=O)c1 | > 100
53 | COc1ccc(-c2ncnc(-c3ccc(OC)c(OC)c3)n2)cc1OC | > 100
54 | CN(C)C(=O)Oc1ccc[n+](C)c1 | > 100

System: SF-268 CNS
Assay: NCI anticancer screen, dose series, 48 h

Row | Compound | TGI [µM]
55 | CN(N=O)C(=O)NNC(=O)N(C)N=O | > 100
56 | CC1=C(C)C2(C#N)C(=O)N3C(=NC(c4ccccc4)NC3c3ccccc3)C2(C#N)C(c2ccccc2)N1 (stereo not drawn) | > 100
57 | Cc1cccc(-n2c(C)nc3ccc(NC(=S)Nc4ccccc4)cc3c2=O)c1 | > 100
58 | COc1ccc(-c2ncnc(-c3ccc(OC)c(OC)c3)n2)cc1OC | > 100
59 | CN(C)C(=O)Oc1ccc[n+](C)c1 | > 100

System: SF-295 CNS
Assay: NCI anticancer screen, dose series, 48 h

Row | Compound | TGI [µM]
60 | CN(N=O)C(=O)NNC(=O)N(C)N=O | > 100
61 | CC1=C(C)C2(C#N)C(=O)N3C(=NC(c4ccccc4)NC3c3ccccc3)C2(C#N)C(c2ccccc2)N1 (stereo not drawn) | > 100
62 | Cc1cccc(-n2c(C)nc3ccc(NC(=S)Nc4ccccc4)cc3c2=O)c1 | > 100
63 | COc1ccc(-c2ncnc(-c3ccc(OC)c(OC)c3)n2)cc1OC | > 100
64 | CN(C)C(=O)Oc1ccc[n+](C)c1 | > 100

System: SF-539 CNS
Assay: NCI anticancer screen, dose series, 48 h

Row | Compound | TGI [µM]
65 | CN(N=O)C(=O)NNC(=O)N(C)N=O | > 100

System: SK-MEL-2 melanoma
Assay: NCI anticancer screen, dose series, 48 h

Row | Compound | TGI [µM]
66 | CN(N=O)C(=O)NNC(=O)N(C)N=O | > 100
67 | CC1=C(C)C2(C#N)C(=O)N3C(=NC(c4ccccc4)NC3c3ccccc3)C2(C#N)C(c2ccccc2)N1 (stereo not drawn) | > 100
68 | Cc1cccc(-n2c(C)nc3ccc(NC(=S)Nc4ccccc4)cc3c2=O)c1 | > 100
